Laboratory results published in patent US8685981B2, “Cyclic compound having hetero atom” (Daiichi Sankyo Company, Limited, priority 2009, dated 2014).

Tested on: ST2 cells, murine bone marrow-derived stromal cells
Test: Osteoblast differentiation test (alkaline phosphatase activity)
Type: cell-based
Settings: Mus musculus, ST-2, 96 h, at 0.03 μg/mL, four days of culturing, control group (0.1% DMSO) set at 100%, read-out: increase (%) in alkaline phosphatase activity
Method: ST2 cells, murine bone marrow-derived stromal cells, (obtained from RIKEN) were used.
In this test, α-MEM media (obtained from GIBCO BRL Cat. No. 10370-021) containing 10% (v/v) of inactivated calf serum (obtained from Hyclone Laboratories, Inc.) and 1% (v/v) of Penicillin-Streptomycin Liquid (obtained from GIBCO BRL Cat. No. 15140-122) (hereinbelow, abbreviated as 10%-FBS-αMEM) were used. In this test, all culturing was performed in a CO2 incubator (37° C., 95% humidity, 5% CO2).
The aforementioned cells were detached with 2 mL of a 0.25% trypsin solution (obtained from GIBCO BRL Cat. No. 15050-065) and dispersed in 10 mL of 10%-FBS-αMEM. Subsequently, the cells were collected by centrifugation (25° C., 800 rpm, five minutes). Then, a cell suspension containing 40000 of the cells/mL of 10%-FBS-αMEM was prepared. The cell suspension was then dispensed into 96-well plates (the product of Falcon), 100 μL per well, at a density of 4000 cells/well, followed by culturing for 24 hours. To the wells except for the below-described well containing a control group, the compound was dispensed at final concentrations of 0.01, 0.03, 0.1, and 0.3 μg/ml. To the well of a control group, DMSO was dispensed at a final concentration of 0.1% (v/v). After four days of culturing, the activity of alkaline phosphatase (ALP) was measured in each group.
The measurement of ALP activity was performed as follows. That is, the medium in each well of the culture plates was completely removed. Each well was then washed by dispensing 100 μL of Dulbecco's phosphate buffer (obtained from GIBCO BRL Cat. No. 14190-144) and then removing it. A cell lysate solution containing 10 mM MgCl2 and 2% (v/v) TritonX-100 (Sigma) was prepared and dispensed at 50 μL/well, followed by stirring at room temperature for five minutes. An ALP substrate solution containing 50 mM diethanolamine (Wako pure chemical industries, Ltd., Cat. No. 099-03112) and 20 mM p-nitrophenyl phosphate (Wako pure chemical industries, Ltd., Cat. No. 147-02343) was prepared and dispensed at 50 μL/well, and the plates were left to stand at room temperature for 10 minutes. Subsequently, absorbance was measured by a microplate reader (Bio-Rad Laboratories, Inc.). Setting the measurement value of the control group of each plate at 100%, the increase (%) in alkaline phosphatase activity in the test compound-addition group was calculated, which was assessed as the degree of osteoblast differentiation.

Row | Structure (SMILES) | activity at 0.03 µg/mL
1 | NC(=O)c1ccc2cncc(N3CCC(OCCO[C@@H]4CCOC4)CC3)c2n1 [Example 3, 8-(4-{2-[(3R)-Tetrahydrofuran-3-yloxy]ethoxy}piperidin-1-yl)-1,6-naphthyridine-2-carboxamide] | ≥ 200%
2 | NC(=O)c1ccc2cncc(N3CCC(OCCO[C@H]4CCOC4)CC3)c2n1 [Example 4, 8-(4-{2-[(3S)-Tetrahydrofuran-3-yloxy]ethoxy}piperidin-1-yl)-1,6-naphthyridine-2-carboxamide] | ≥ 200%
3 | NC(=O)c1ccc2cncc(N3CCCCC3)c2n1 [Example 12, 8-Piperidin-1-yl-1,6-naphthyridine-2-carboxamide] | ≥ 200%
4 | NC(=O)c1ccc2cncc(N3CCN(c4ccccc4)CC3)c2c1 [Example 15, 4-(4-Phenylpiperazin-1-yl)isoquinoline-6-carboxamide] | ≥ 200%
5 | NC(=O)c1ccc2cncc(N3CCC(COC4CCOCC4)CC3)c2c1 [Example 77] | ≥ 200%
6 | NC(=O)c1ccc2cncc(N3CCN(C(=O)c4ccccc4)CC3)c2c1 [Example 78] | ≥ 200%
7 | CC(=O)N1CCN(c2cncc3ccc(C(N)=O)cc23)CC1 [Example 79] | ≥ 200%
8 | NC(=O)c1ccc2cncc(N3CCC(OCCOC4CCOCC4)CC3)c2c1 [Example 81] | ≥ 200%
9 | CN(C)C(=O)CCC1CCN(c2cncc3ccc(C(N)=O)cc23)CC1 [Example 82] | ≥ 200%
10 | NC(=O)c1ccc2cncc(N3CCC(c4ccccc4)CC3)c2n1 [Example 83] | ≥ 200%
11 | COCC1CN(c2cncc3ccc(C(N)=O)cc23)CCN1c1ccccc1 (centres unmarked) [Example 84] | ≥ 200%
12 | NC(=O)c1ccc2cncc(N3CCC(OCCOCCO)CC3)c2c1 [Example 85] | ≥ 200%
13 | NC(=O)c1ccc2cncc(N3CCC(OCCOC4CC4)CC3)c2c1 [Example 87] | ≥ 200%
14 | NC(=O)c1ccc2cncc(N3CCC(O)CC3)c2c1 [Example 89] | ≥ 200%
15 | NC(=O)c1ccc2cncc(N3CCC(OCCS(=O)(=O)N4CCOCC4)CC3)c2n1 [Example 92] | ≥ 200%
16 | NC(=O)c1ccc2cncc(N3CCC(OCC(=O)N4CCOCC4)CC3)c2c1 [Example 93] | ≥ 200%
17 | CN(C)C(=O)COC1CCN(c2cncc3ccc(C(N)=O)cc23)CC1 [Example 94] | ≥ 200%
18 | NC(=O)c1ccc2cncc(N3CCC(COC(F)F)CC3)c2c1 [Example 95] | ≥ 200%

Row | Structure (SMILES) | activity at 0.03 µg/mL
19 | NC(=O)c1ccc2cncc(N3CCC(OCCS(=O)(=O)N4CCOCC4)CC3)c2c1 [Example 97] | ≥ 200%
20 | CN(C)C(=O)N1CCN(c2cncc3ccc(C(N)=O)cc23)CC1 [Example 99] | ≥ 200%
21 | NC(=O)c1ccc2cncc(N3CCC(OCC(=O)N4CCOCC4)CC3)c2n1 [Example 100] | ≥ 200%
22 | CN(CCOC1CCN(c2cncc3ccc(C(N)=O)cc23)CC1)S(C)(=O)=O [Example 102] | ≥ 200%
23 | NC(=O)c1ccc2cncc(N3CCCC(COC(F)F)C3)c2c1 (centres unmarked) [Example 103] | ≥ 200%
24 | NC(=O)c1ccc2cncc(N3CCCC(COC(F)F)C3)c2n1 (centres unmarked) [Example 104] | ≥ 200%
25 | COCC1CN(c2cncc3ccc(C(N)=O)cc23)CCO1 (centres unmarked) [Example 105] | ≥ 200%
26 | CN(C)S(=O)(=O)CCOC1CCN(c2cncc3ccc(C(N)=O)cc23)CC1 [Example 106] | ≥ 200%
27 | COCC1CN(c2cncc3ccc(C(N)=O)nc23)CCC1OC (centres unmarked) [Example 108] | ≥ 200%
28 | COCC1CN(c2cncc3ccc(C(N)=O)cc23)CCC1OC (centres unmarked) [Example 109] | ≥ 200%
29 | NC(=O)c1ccc2cncc(N3CCC(COCCOC4CCOCC4)CC3)c2n1 [Example 110] | ≥ 200%
30 | CC(C)OCCOC1CCN(c2cncc3ccc(C(N)=O)nc23)CC1 [Example 111] | ≥ 200%
31 | COCC1CCN(c2cncc3ccc(C(N)=O)nc23)CC1 [Example 112] | ≥ 200%
32 | NC(=O)c1ccc2cncc(N3CCC(OCC(=O)N4CCCC4)CC3)c2n1 [Example 113] | ≥ 200%
33 | NC(=O)c1ccc2cncc(N3CCN(C(=O)N4CCCC4)CC3)c2n1 [Example 114] | ≥ 200%
34 | CCN(C)C(=O)N1CCN(c2cncc3ccc(C(N)=O)nc23)CC1 [Example 115] | ≥ 200%
35 | CCN(C)C(=O)COC1CCN(c2cncc3ccc(C(N)=O)nc23)CC1 [Example 116] | ≥ 200%
36 | NC(=O)c1ccc2cncc(N3CCC(OCCOC4CCOC4)CC3)c2n1 (centres unmarked) [Example 117] | ≥ 200%

Tested on: female F344 rats
Test: Effect on bone density (oophorectomy or sham surgery, femur DXA)
Type: in vivo
Settings: 3 mg/kg, orally once a day, six days a week, six to eight weeks, female F344 rats after oophorectomy or sham surgery
Method: Eight to 12 week old female F344 rats were purchased from Charles River Laboratories and used in the following experiment. Rats were anesthetized with an intraperitoneal administration of 40 mg/kg of Somnopentyl (Kyoritsu Seiyaku Corporation), and then oophorectomy or sham surgery was performed. From the day after surgery, a suspension of the test compound in a 0.5% methyl cellulose solution (Wako pure chemical industries, Ltd. Cat. No. 133-14255) was orally administered once a day, six days a week. Six to eight weeks after administration, the rats were euthanized by removal of whole blood from the lower abdominal aorta under Somnopentyl anesthesia, and the left and right femur was excised.
After removal of soft tissues, the bone density of the femur thus excised was measured by a DXA apparatus, DCS-600R (Aloka Co., Ltd.). The bone density was assessed in the whole femur as well as in three equal sections of the whole femur, namely the proximal end, the shaft, and the distal end.

Row | Structure (SMILES) | bone density of the femur
37 | NC(=O)c1ccc2cncc(N3CCC(OCCO[C@@H]4CCOC4)CC3)c2n1 [Example 3, 8-(4-{2-[(3R)-Tetrahydrofuran-3-yloxy]ethoxy}piperidin-1-yl)-1,6-naphthyridine-2-carboxamide] | significantly increased
38 | NC(=O)c1ccc2cncc(N3CCC(OCCO[C@H]4CCOC4)CC3)c2n1 [Example 4, 8-(4-{2-[(3S)-Tetrahydrofuran-3-yloxy]ethoxy}piperidin-1-yl)-1,6-naphthyridine-2-carboxamide] | significantly increased
39 | Cl.NC(=O)c1ccc2cncc(N3CCC(OCCOC4CCOCC4)CC3)c2n1 [Example 7, 8-{4-[2-(Tetrahydro-2H-pyran-4-yloxy)ethoxy]piperidin-1-yl}-1,6-naphthyridine-2-carboxamide hydrochloride] | significantly increased
40 | NC(=O)c1ccc2cncc(N3CCCCC3)c2n1 [Example 12, 8-Piperidin-1-yl-1,6-naphthyridine-2-carboxamide] | significantly increased
41 | NC(=O)c1ccc2cncc(N3CCN(c4ccccc4)CC3)c2c1 [Example 15, 4-(4-Phenylpiperazin-1-yl)isoquinoline-6-carboxamide] | significantly increased
